Consider three molecules from ChEMBL document CHEMBL3608282 (Bioorg Med Chem Lett, 2015).

By CC50 is commonly meant the concentration that lowers cell viability or growth by half. As usually defined, the EC50 is the concentration that produces a half-maximal response. As usually defined, the EC90 is the point of the concentration-response curve where the effect stands at 90%.

System in one series: not listed separately
Nature of the series: Therapeutic index, ratio of CC50 for human CEM cells to EC50 for HCV genotype 1b. The format is cell-based, CCRF-CEM. The settings on record: CEM cells (CC50) versus HCV genotype 1b (EC50).
For `COC(=O)N[C@@H](CSC)C(=O)N1CCC[C@H]1c1ncc(-c2ccc(-c3ccc(-c4cnc([C@@H]5CCCN5C(=O)[C@@H](NC(=O)OC)C(C)C)[nH]4)cc3)cc2)[nH]1`, the selectivity ratio is over 1e+06.
For the molecule `COC(=O)N[C@@H](CSC(C)(C)C)C(=O)N1CCC[C@H]1c1ncc(-c2ccc(-c3ccc(-c4cnc([C@@H]5CCCN5C(=O)[C@@H](NC(=O)OC)C(C)C)[nH]4)cc3)cc2)[nH]1`, the selectivity ratio is over 1e+06.
On to `COC(=O)N[C@@H](CSCc1ccccc1)C(=O)N1CCC[C@H]1c1ncc(-c2ccc(-c3ccc(-c4cnc([C@@H]5CCCN5C(=O)[C@@H](NC(=O)OC)C(C)C)[nH]4)cc3)cc2)[nH]1`, for which the selectivity ratio is over 1e+06.

For a further series, the system named is PBMC. Nature of the series: Cytotoxicity against PBMC (unknown origin).
Settings: not given
In kind it is cell-based.
`COC(=O)N[C@@H](CSC)C(=O)N1CCC[C@H]1c1ncc(-c2ccc(-c3ccc(-c4cnc([C@@H]5CCCN5C(=O)[C@@H](NC(=O)OC)C(C)C)[nH]4)cc3)cc2)[nH]1` gave a CC50 of 31000 nM.
`COC(=O)N[C@@H](CSC(C)(C)C)C(=O)N1CCC[C@H]1c1ncc(-c2ccc(-c3ccc(-c4cnc([C@@H]5CCCN5C(=O)[C@@H](NC(=O)OC)C(C)C)[nH]4)cc3)cc2)[nH]1` displayed a half-maximal cytotoxic concentration (CC50) of 18000 nM.
The same measure, in the same setting: the figure for `COC(=O)N[C@@H](CSCc1ccccc1)C(=O)N1CCC[C@H]1c1ncc(-c2ccc(-c3ccc(-c4cnc([C@@H]5CCCN5C(=O)[C@@H](NC(=O)OC)C(C)C)[nH]4)cc3)cc2)[nH]1` is over 100000 nM.

In another series the test system is Hepatitis C virus. Description: Antiviral activity against wild type HCV genotype 1b infected in human HuH7 cells assessed as reduction in viral RNA replication. The format is functional, organism-based, Hepacivirus hominis. The settings on record: Huh-7.
As to `COC(=O)N[C@@H](CSC(C)(C)C)C(=O)N1CCC[C@H]1c1ncc(-c2ccc(-c3ccc(-c4cnc([C@@H]5CCCN5C(=O)[C@@H](NC(=O)OC)C(C)C)[nH]4)cc3)cc2)[nH]1`, the EC50 was found to be 0.14 nM.
The same measure, in the same setting: next, `COC(=O)N[C@@H](CSCc1ccccc1)C(=O)N1CCC[C@H]1c1ncc(-c2ccc(-c3ccc(-c4cnc([C@@H]5CCCN5C(=O)[C@@H](NC(=O)OC)C(C)C)[nH]4)cc3)cc2)[nH]1`: 0.1 nM.

For a further series, the system named is Hepatitis C virus. Nature of the series: Resistance index, ratio of EC50 for HCV genotype 1b expressing NS5A L31V mutant infected in human HuH7 cells to EC50 for wild type HCV genotype 1b infected in human HuH7 cells. The format is functional, Hepacivirus hominis, Huh-7.
Settings: not given
On to `COC(=O)N[C@@H](CSCc1ccccc1)C(=O)N1CCC[C@H]1c1ncc(-c2ccc(-c3ccc(-c4cnc([C@@H]5CCCN5C(=O)[C@@H](NC(=O)OC)C(C)C)[nH]4)cc3)cc2)[nH]1`, for which the “Ratio EC50” value is listed as over 3.

System in the next series: not listed separately
Nature of the series: Therapeutic index, ratio of CC50 for african green monkey Vero cells to EC50 for HCV genotype 1b. In kind it is cell-based. The settings on record: Vero cells (CC50) versus HCV genotype 1b (EC50).
For `COC(=O)N[C@@H](CSC)C(=O)N1CCC[C@H]1c1ncc(-c2ccc(-c3ccc(-c4cnc([C@@H]5CCCN5C(=O)[C@@H](NC(=O)OC)C(C)C)[nH]4)cc3)cc2)[nH]1`, the selectivity ratio was over 1e+06.
Same read-out and setting: next, `COC(=O)N[C@@H](CSC(C)(C)C)C(=O)N1CCC[C@H]1c1ncc(-c2ccc(-c3ccc(-c4cnc([C@@H]5CCCN5C(=O)[C@@H](NC(=O)OC)C(C)C)[nH]4)cc3)cc2)[nH]1`: over 1e+06; `COC(=O)N[C@@H](CSCc1ccccc1)C(=O)N1CCC[C@H]1c1ncc(-c2ccc(-c3ccc(-c4cnc([C@@H]5CCCN5C(=O)[C@@H](NC(=O)OC)C(C)C)[nH]4)cc3)cc2)[nH]1`: over 1e+06.

The subject of a further series is Hepatitis C virus. Nature of the series: Antiviral activity against HCV genotype 1b expressing NS5A L31V mutant infected in human HuH7 cells assessed as reduction in viral RNA replication. The settings on record: Huh-7. The format is functional, organism-based, Hepacivirus hominis.
For `COC(=O)N[C@@H](CSC(C)(C)C)C(=O)N1CCC[C@H]1c1ncc(-c2ccc(-c3ccc(-c4cnc([C@@H]5CCCN5C(=O)[C@@H](NC(=O)OC)C(C)C)[nH]4)cc3)cc2)[nH]1`, the concentration for a half-maximal effect (EC50) came to 0.072 nM.
On to `COC(=O)N[C@@H](CSCc1ccccc1)C(=O)N1CCC[C@H]1c1ncc(-c2ccc(-c3ccc(-c4cnc([C@@H]5CCCN5C(=O)[C@@H](NC(=O)OC)C(C)C)[nH]4)cc3)cc2)[nH]1`, for which the EC50 is 0.39 nM.

The next series concerns Vero. Description: Cytotoxicity against african green monkey Vero cells. The settings on record: chlorocebus sabaeus. The format is cell-based.
The molecule `COC(=O)N[C@@H](CSC)C(=O)N1CCC[C@H]1c1ncc(-c2ccc(-c3ccc(-c4cnc([C@@H]5CCCN5C(=O)[C@@H](NC(=O)OC)C(C)C)[nH]4)cc3)cc2)[nH]1` gave a CC50 of 18000 nM.
Same read-out and setting: the figure for `COC(=O)N[C@@H](CSC(C)(C)C)C(=O)N1CCC[C@H]1c1ncc(-c2ccc(-c3ccc(-c4cnc([C@@H]5CCCN5C(=O)[C@@H](NC(=O)OC)C(C)C)[nH]4)cc3)cc2)[nH]1` is 39000 nM; for `COC(=O)N[C@@H](CSCc1ccccc1)C(=O)N1CCC[C@H]1c1ncc(-c2ccc(-c3ccc(-c4cnc([C@@H]5CCCN5C(=O)[C@@H](NC(=O)OC)C(C)C)[nH]4)cc3)cc2)[nH]1` it is over 100000 nM.

System in another series: not listed separately
Nature of the series: Cytotoxicity against human HuH7 cells. In kind it is cell-based. The settings on record: huh-7.
For the molecule `COC(=O)N[C@@H](CSC(C)(C)C)C(=O)N1CCC[C@H]1c1ncc(-c2ccc(-c3ccc(-c4cnc([C@@H]5CCCN5C(=O)[C@@H](NC(=O)OC)C(C)C)[nH]4)cc3)cc2)[nH]1`, the CC50 is over 330000 nM.
On the same count and under the same terms, the figure for `COC(=O)N[C@@H](CSCc1ccccc1)C(=O)N1CCC[C@H]1c1ncc(-c2ccc(-c3ccc(-c4cnc([C@@H]5CCCN5C(=O)[C@@H](NC(=O)OC)C(C)C)[nH]4)cc3)cc2)[nH]1` is over 330000 nM.

In another series the test system is Hepatitis C virus. Nature of the series: Antiviral activity against HCV genotype 1a. The format is functional, organism-based, Hepacivirus hominis. The settings on record: subtype 1a.
In turn, `COC(=O)N[C@@H](CSC(C)(C)C)C(=O)N1CCC[C@H]1c1ncc(-c2ccc(-c3ccc(-c4cnc([C@@H]5CCCN5C(=O)[C@@H](NC(=O)OC)C(C)C)[nH]4)cc3)cc2)[nH]1` gave a 50% effective concentration (EC50) of 0.14 nM.
On the same count and under the same terms, next, `COC(=O)N[C@@H](CSCc1ccccc1)C(=O)N1CCC[C@H]1c1ncc(-c2ccc(-c3ccc(-c4cnc([C@@H]5CCCN5C(=O)[C@@H](NC(=O)OC)C(C)C)[nH]4)cc3)cc2)[nH]1`: 0.1 nM.

The next series concerns Hepatitis C virus. Nature of the series: Antiviral activity against HCV genotype 1b expressing NS5A Y93H mutant infected in human HuH7 cells assessed as reduction in viral RNA replication. The format is functional, organism-based, Hepacivirus hominis. The settings on record: Huh-7.
As to `COC(=O)N[C@@H](CSC(C)(C)C)C(=O)N1CCC[C@H]1c1ncc(-c2ccc(-c3ccc(-c4cnc([C@@H]5CCCN5C(=O)[C@@H](NC(=O)OC)C(C)C)[nH]4)cc3)cc2)[nH]1`, the EC50 was at least 0.33 nM.
As to `COC(=O)N[C@@H](CSCc1ccccc1)C(=O)N1CCC[C@H]1c1ncc(-c2ccc(-c3ccc(-c4cnc([C@@H]5CCCN5C(=O)[C@@H](NC(=O)OC)C(C)C)[nH]4)cc3)cc2)[nH]1`, the EC50 was over 0.33 nM.

The test system of a further series is CCRF-CEM. Nature of the series: Cytotoxicity against human CEM cells. In kind it is cell-based.
Settings: not given
For `COC(=O)N[C@@H](CSC)C(=O)N1CCC[C@H]1c1ncc(-c2ccc(-c3ccc(-c4cnc([C@@H]5CCCN5C(=O)[C@@H](NC(=O)OC)C(C)C)[nH]4)cc3)cc2)[nH]1`, it took 11000 nM to reach half-maximal cytotoxicity (CC50).
Molecule `COC(=O)N[C@@H](CSC(C)(C)C)C(=O)N1CCC[C@H]1c1ncc(-c2ccc(-c3ccc(-c4cnc([C@@H]5CCCN5C(=O)[C@@H](NC(=O)OC)C(C)C)[nH]4)cc3)cc2)[nH]1` came in with a CC50 of 10000 nM.
Still for that read-out and setting: the figure for `COC(=O)N[C@@H](CSCc1ccccc1)C(=O)N1CCC[C@H]1c1ncc(-c2ccc(-c3ccc(-c4cnc([C@@H]5CCCN5C(=O)[C@@H](NC(=O)OC)C(C)C)[nH]4)cc3)cc2)[nH]1` is 82000 nM.

System in a further series: not listed separately
Nature of the series: Therapeutic index, ratio of CC50 for PBMC (unknown origin) to EC50 for HCV genotype 1b. The settings on record: PBMC (CC50) versus HCV genotype 1b (EC50).
On to `COC(=O)N[C@@H](CSC)C(=O)N1CCC[C@H]1c1ncc(-c2ccc(-c3ccc(-c4cnc([C@@H]5CCCN5C(=O)[C@@H](NC(=O)OC)C(C)C)[nH]4)cc3)cc2)[nH]1`, for which the selectivity ratio is over 1e+06.
`COC(=O)N[C@@H](CSC(C)(C)C)C(=O)N1CCC[C@H]1c1ncc(-c2ccc(-c3ccc(-c4cnc([C@@H]5CCCN5C(=O)[C@@H](NC(=O)OC)C(C)C)[nH]4)cc3)cc2)[nH]1`: the selectivity ratio is over 1e+06.
Same read-out and setting: the figure for `COC(=O)N[C@@H](CSCc1ccccc1)C(=O)N1CCC[C@H]1c1ncc(-c2ccc(-c3ccc(-c4cnc([C@@H]5CCCN5C(=O)[C@@H](NC(=O)OC)C(C)C)[nH]4)cc3)cc2)[nH]1` is over 1e+06.

System in a further series: not listed separately
Nature of the series: Therapeutic index, ratio of CC50 for human HuH7 cells to EC50 for HCV genotype 1b. The settings on record: HuH7 cells (CC50) versus HCV genotype 1b (EC50). The format is cell-based, Huh-7.
Take `COC(=O)N[C@@H](CSC)C(=O)N1CCC[C@H]1c1ncc(-c2ccc(-c3ccc(-c4cnc([C@@H]5CCCN5C(=O)[C@@H](NC(=O)OC)C(C)C)[nH]4)cc3)cc2)[nH]1`: the selectivity ratio is over 1e+06.
In the case of `COC(=O)N[C@@H](CSC(C)(C)C)C(=O)N1CCC[C@H]1c1ncc(-c2ccc(-c3ccc(-c4cnc([C@@H]5CCCN5C(=O)[C@@H](NC(=O)OC)C(C)C)[nH]4)cc3)cc2)[nH]1`, the selectivity ratio was over 1e+06.
On the same count and under the same terms, the figure for `COC(=O)N[C@@H](CSCc1ccccc1)C(=O)N1CCC[C@H]1c1ncc(-c2ccc(-c3ccc(-c4cnc([C@@H]5CCCN5C(=O)[C@@H](NC(=O)OC)C(C)C)[nH]4)cc3)cc2)[nH]1` is over 1e+06.

The next series relates to Hepatitis C virus. Description: Antiviral activity against HCV genotype 2a. In kind it is functional, organism-based, Hepacivirus hominis.
Settings: not given
Turning to `COC(=O)N[C@@H](CSC(C)(C)C)C(=O)N1CCC[C@H]1c1ncc(-c2ccc(-c3ccc(-c4cnc([C@@H]5CCCN5C(=O)[C@@H](NC(=O)OC)C(C)C)[nH]4)cc3)cc2)[nH]1`, a half-maximal response (EC50) required 0.055 nM.
Same read-out and setting: next, `COC(=O)N[C@@H](CSCc1ccccc1)C(=O)N1CCC[C@H]1c1ncc(-c2ccc(-c3ccc(-c4cnc([C@@H]5CCCN5C(=O)[C@@H](NC(=O)OC)C(C)C)[nH]4)cc3)cc2)[nH]1`: 0.039 nM.

For a further series, the system named is Hepatitis C virus. Nature of the series: Antiviral activity against HCV genotype 1b infected in human HuH7 cells assessed as reduction in viral RNA replication. The settings on record: Huh-7. In kind it is functional, organism-based, Hepacivirus hominis.
In the case of `COC(=O)N[C@@H](CSC)C(=O)N1CCC[C@H]1c1ncc(-c2ccc(-c3ccc(-c4cnc([C@@H]5CCCN5C(=O)[C@@H](NC(=O)OC)C(C)C)[nH]4)cc3)cc2)[nH]1`, the EC50 worked out at 0.061 nM and the EC90 stood at 0.1 nM.
For `COC(=O)N[C@@H](CSC(C)(C)C)C(=O)N1CCC[C@H]1c1ncc(-c2ccc(-c3ccc(-c4cnc([C@@H]5CCCN5C(=O)[C@@H](NC(=O)OC)C(C)C)[nH]4)cc3)cc2)[nH]1`, in that order: 0.03 nM and 0.1 nM.
For `COC(=O)N[C@@H](CSCc1ccccc1)C(=O)N1CCC[C@H]1c1ncc(-c2ccc(-c3ccc(-c4cnc([C@@H]5CCCN5C(=O)[C@@H](NC(=O)OC)C(C)C)[nH]4)cc3)cc2)[nH]1`, in that order: 0.02 nM and 0.032 nM.
